Like-named read-outs stand apart in the source and are kept apart here.
Columns and labels:
muscle relaxation = test: Total muscle relaxation in alert dogs; format: in vivo; conditions: for Activity period: time between administration and disappearance of the activity; for Time until the max. effect: time between administration and total muscle relaxation
Procedure: To alert dogs (6 animals for each test compound) four doses causing a total muscle relaxation were administered and the time between the administration and the total muscle relaxation as well as the time between the administration and the disappearance of the activity was measured.

tibialis muscle = test: Neuromuscular block in anesthetized cats (electrically stimulated peroneal nerve, tibialis muscle contractions); format: in vivo; conditions: for Activity period: i.v., time between first appearance of the effect and restoration of normal muscle contractions; for ED50: i.v. dose reducing the contractions to half of their original values, 4 doses
Procedure: The potency and the activity period of the compounds according to the invention were tested on anesthesized cats and alert dogs. On anesthesized cats the peroneal nerve was electrically stimulated and the corresponding contractions of the tibialis muscle was registrated. The i.v. doses of the various test compounds which reduced the contractions to half of their original values were determined (ED50 -values). In the attached Table I the ED50 -values and the corresponding activity periods are shown, the term "activity period" is intended to mean the time interval between the first appearance of the effect of the test compounds and the restoration of the normal muscle contractions. For each test compound 4 doses were used and for each dose 6 animals were examined. As a reference compound suxamethonium was used, which is a known compound widely used as a neuromuscular blocking agent having a short activity period.

[1] = Dose 100 (unit not printed), listed as 3 β-Pyrrolidino-17a-methyl-17a-aza-D-homo-5 α-androstane-di-methobromide
[2] = Dose 100 (unit not printed), listed as 3 β-Pyrrolidino-17a-methyl-17a-aza-D-homo-5α -androstane-di-methoiodide

| SMILES | Activity period (muscle relaxation; Dose 100 (unit not given)) [min] | Time until the max. effect (muscle relaxation; Dose 100 (unit not given)) [s] | Activity period (tibialis muscle) [min] | also measured |
| --- | --- | --- | --- | --- |
| C[C@]12CC[C@@H]([N+]3(C)CCCC3)C[C@@H]1CC[C@@H]1[C@@H]2CC[C@@]2(C)[C@H]1CCC[N+]2(C)C [3 α-Pyrrolidino-17a-methyl-17a-aza-D-homo-5α-androstane-di-m] [3α-Pyrrolidino-17a-methyl-17a-aza-D-homo-5α-androstane dimethobromide] | 8.6 | 18 | 11.2 | – |
| C[C@]12CC[C@@H]([N+]3(C)CCCC3)C[C@@H]1CC[C@@H]1[C@@H]2CC[C@@]2(C)[C@H]1CCC[N+]2(C)C [3 αPyrrolidino-17a-methyl-17a-aza-D-homo-5α-androstane-di-me] [3α-Pyrrolidino-17a-methyl-17a-aza-D-homo-5α-androstane dimethoiodide] | 8.5 | 19 | 12.4 | ED50 (tibialis muscle): 0.12 mg/kg |
| C[C@]12CC[C@H]([N+]3(C)CCCC3)C[C@@H]1CC[C@@H]1[C@@H]2CC[C@@]2(C)[C@H]1CCC[N+]2(C)C [3 β-Pyrrolidino-17a-methyl-17a-aza-D-homo-5α-androstane-di-m] [3β-Pyrrolidino-17a-methyl-17a-aza-D-homo-5α-androstane dimethobromide] | – | – | 13.0 | Activity period (muscle relaxation; [1]): 9.5 min; Time until the max. effect (muscle relaxation; [1]): 21 s |
| C[C@]12CC[C@H]([N+]3(C)CCCC3)C[C@@H]1CC[C@@H]1[C@@H]2CC[C@@]2(C)[C@H]1CCC[N+]2(C)C [3 β-Pyrrolidino-17a-methyl-17a-aza-D-homo-5α-androstane-di-m] [3β-Pyrrolidino-17a-methyl-17a-aza-D-homo-5α-androstane dimethoiodide] | – | – | 12.6 | Activity period (muscle relaxation; [2]): 8.8 min; Time until the max. effect (muscle relaxation; [2]): 17 s; ED50 (tibialis muscle): 0.105 mg/kg |
| C[C@]12CC[C@@H]([N+]3(C)CCCC3)C[C@@H]1CC[C@@H]1[C@@H]2CC[C@@]2(C)[C@H]1CCC[N+]2(C)C [3α-Pyrrolidino-17a-methyl-17a-aza-D-homo-5α-androstane dimethobromide] | – | – | – | ED50 (tibialis muscle; Felis catus, iv): 0.1 mg/kg |
| C[C@]12CC[C@H]([N+]3(C)CCCC3)C[C@@H]1CC[C@@H]1[C@@H]2CC[C@@]2(C)[C@H]1CCC[N+]2(C)C [3β-Pyrrolidino-17a-methyl-17a-aza-D-homo-5α-androstane dimethobromide] | – | – | – | ED50 (tibialis muscle; Felis catus, iv): 0.125 mg/kg |
| C[N+](C)(C)CCOC(=O)CCC(=O)OCC[N+](C)(C)C [Suxamethonium, reference compound] | 10.3 | 16 | 11.0 | ED50 (tibialis muscle; Felis catus, iv, read-out: ED50): 0.06 mg/kg |

From patent US4200636A, “3-Amino-17a-aza-D-homoandrostane compounds, and pharmaceutical compositions containing them” (priority 1977, dated 1980)
